Results reported in publication PMC12522106 (Cancer Research Communications, 2025).

Tests used:
[1] = test system: murine K7M2 osteosarcoma cells; set-up: method as in PMID 32599665; conditions: compared with LM7 model; cited from earlier work
[2] = test system: patient-derived sarcospheres; test: Sarcosphere size (Incucyte); type: cell-based, human, canine; conditions: 48-hour observation period; sensitive and resistant samples
Procedure: (§1) The number of patient-derived cells required to obtain sarcospheres with 400-μm diameters was determined for each patient and varied from 1,000 to 15,000 cells per sarcosphere.

[3] = test system: human and canine patient-derived sarcospheres; test: Resazurin metabolic activity of patient-derived sarcospheres, human and canine summarised together; type: cell-based; conditions: 48 h, the other patient samples, read-out: ED50s of romidepsin-resistant patient samples
Source text: Osteosarcoma tissue was obtained during standard-of-care procedures (biopsies or resections) in human patients treated at Indiana University Health and Riley Children’s Hospital with Institutional Review Board approval (#1501467439). Tissue from canine patients with osteosarcoma was obtained from standard-of-care amputations at the Purdue University College of Veterinary Medicine and the Metropolitan Veterinary Hospital. Osteosarcoma diagnosis was confirmed by review of pathology reports. Demographic and clinical information for human and canine patients is in Table 1. Primary osteosarcoma cells were isolated by collagenase/mechanical dispersion using a modification of a previously described protocol ([35]). […] The tissue was rinsed with cold PBS (Cytiva, cat. #SH30028.02) and minced prior to incubation in 10 mL of culture media containing collagenase type II (750 units/mL with 13–18 units of clostripain/mL, Worthington, cat. #LS004176) for 3 hours at 37°C and 5% CO2. The media and tissue fragments were centrifuged at 200 g for 5 minutes. […]
The number of patient-derived cells required to obtain sarcospheres with 400-μm diameters was determined for each patient and varied from 1,000 to 15,000 cells per sarcosphere. […]

[4] = test system: sarcospheres from human patients with osteosarcoma; test: Resazurin metabolic activity of human patient-derived sarcospheres; type: cell-based; conditions: for ED50: 48 hours, metabolic activity
Source text: Osteosarcoma tissue was obtained during standard-of-care procedures (biopsies or resections) in human patients treated at Indiana University Health and Riley Children’s Hospital with Institutional Review Board approval (#1501467439). Tissue from canine patients with osteosarcoma was obtained from standard-of-care amputations at the Purdue University College of Veterinary Medicine and the Metropolitan Veterinary Hospital. Osteosarcoma diagnosis was confirmed by review of pathology reports. Demographic and clinical information for human and canine patients is in Table 1. Primary osteosarcoma cells were isolated by collagenase/mechanical dispersion using a modification of a previously described protocol ([35]). […] The tissue was rinsed with cold PBS (Cytiva, cat. #SH30028.02) and minced prior to incubation in 10 mL of culture media containing collagenase type II (750 units/mL with 13–18 units of clostripain/mL, Worthington, cat. #LS004176) for 3 hours at 37°C and 5% CO2. The media and tissue fragments were centrifuged at 200 g for 5 minutes. Pellets with a visible layer of red blood cells were then treated with 5 mL of ACK Lysing Buffer (Gibco, cat. #A10492-01) for 1 minute and then centrifuged at 200 g for 2 minutes. Pellets were resuspended in culture media, pipetted up and down 15 times to disperse tissue fragments, and centrifuged at 200 g for 5 minutes. Finally, any remaining tissue fragments were crushed with a 25-mL pipette and transferred with released cells and culture media to a 100-mm tissue culture dish and incubated at 37°C and 5% CO2. Media were changed every 3 days. When a confluence of ∼80% was reached, the cells were passaged to 150-mm dishes at 5,000 cells/cm^2. Aliquots of the patient-derived osteosarcoma cells were frozen in 10% DMSO (Sigma-Aldrich, D2650), 40% FBS (Cytiva, SH30071.03), and 50% culture media at second passage and stored in liquid nitrogen. The TT2-77 xenoline is a patient cell line that was isolated from a patient-derived xenograft (PDX) that was previously developed and characterized by the Pollok lab ([5]).
as §1
Round-bottom 96-well plates were coated with 50 μL/well of 0.5% poly 2-hydroxyethyl methacrylate (Polysciences Inc., cat. #09689-25) in 100% ethanol and incubated at 37°C for 3 days before use to obtain a nonadherent surface. […] Highly metastatic osteosarcoma cells cultured in monolayers at 50% to 80% confluence were lifted with Accutase (Innovative Cell Technologies, Inc., cat. #NC9839010), resuspended in media, and diluted to the desired concentration.

[5] = test system: sarcospheres derived from 143B, MG63.3-GFP, and LM7 cell lines; test: Sarcosphere resazurin metabolic activity, results stated across all three cell lines; type: cell-based, human; conditions: with and without MAP; vs belinostat, panobinostat, vorinostat, AR-42, resminostat
Procedure: Khanna DVM, PhD (NCI). […] Medium was sterile filtered before use.
Highly metastatic osteosarcoma cells cultured in monolayers at 50% to 80% confluence were lifted with Accutase (Innovative Cell Technologies, Inc., cat. #NC9839010), resuspended in media, and diluted to the desired concentration. […] Following cell seeding, plates were centrifuged (1,000 g for 10 minutes at 4°C) and then incubated at 37°C with 5% CO2. […] Then, 100 μL drug treatment or vehicle was added to each well. […] Resazurin reduction on day 2 by vehicle-treated sarcospheres was compared with resazurin reduction on day 0 to calculate sarcosphere growth without drug over 2 days in selected experiments.
Plates were incubated at 37°C in 5% CO2 for 2 or 6 hours.
Sarcospheres were matured for 24 hours and then treated for 48 hours with media containing 10 µmol/L of each drug and 0.1% DMSO. […] Growth inhibition represents a more clinically translatable measure for screening studies in which a value of 0% represents stable disease since the start of treatment, values of 0% to 100% represent progression in which 100% is the untreated control, and values less than 0% represent regression in which −100% represents blank wells without sarcospheres.

[6] = test system: LM7 sarcospheres; test: Transient romidepsin treatment, recovery of metabolic activity; type: cell-based, human; conditions: 10–100 nmol/L; followed to day 14
Procedure: (§2) Sarcosphere losses were minimized by removing the media stepwise (25 μL/step, 10 μL/second) and by centering the sarcospheres in the middle of each well by centrifugation (1,000 g for 6 minutes) before each media exchange cycle. After each assay of metabolic activity, resazurin was removed by three cycles of media exchange and the media were changed on days 10 and 12 by one cycle.

[7] = test system: 143B sarcospheres; test: as above; type: cell-based, human; conditions: followed to day 14
Procedure: as §2

In the case of `C/C=C1\NC(=O)[C@H]2CSSCC/C=C/[C@H](CC(=O)N[C@H](C(C)C)C(=O)N2)OC(=O)[C@H](C(C)C)NC1=O` [romidepsin], the “effect on lung metastases” value [1] is listed as “less effect”, the “effect on sarcosphere size” value [2] is listed as “did not change in size” and the EC50 [3] is listed as over 1000 nM. The “share of human patient samples whose sarcospheres responded” value ([4]; ED50s <70 nmol/L) was about 30%, the ED50 ([4]; TT2-77 Xenoline (romidepsin sensitive)) was 10 nmol/L and the “ED50 of the notably more sensitive patient” value ([4]; one patient) was 1 nM. The ED50 ([4]; patient sample IUhOS002LR (romidepsin resistant)) was >1,000 nmol/L, the ED50 ([4]; patient sample IUhOS005B (romidepsin resistant)) was >1,000 nmol/L and the ED50 ([4]; patient sample IUhOS006B (romidepsin sensitive)) was 6 nmol/L. For the same compound, the ED50 ([4]; patient sample IUhOS013B (romidepsin resistant)) was >1,000 nmol/L, the ED50 ([4]; patient sample IUhOS018B (romidepsin sensitive)) was 1 nmol/L and the ED50 ([4]; patient sample IUhOS020LR (romidepsin sensitive)) was 63 nmol/L. For the same compound, the ED50 ([4]; patient sample IUhOS021B (romidepsin resistant)) was >1,000 nmol/L, the ED50 ([4]; patient sample IUhOS027P (romidepsin resistant)) was >1,000 nmol/L and the ED50 ([4]; patient sample IUhOS029LR (romidepsin resistant)) was >1,000 nmol/L. For the same compound, the ED50 ([4]; patient sample IUhOS0410B (romidepsin resistant)) was >1,000 nmol/L, the ED50 ([4]; patient sample IUhOS0410P (romidepsin resistant)) was >1,000 nmol/L and the ED50 ([4]; patient sample IUhOS1516B (romidepsin sensitive)) was 10 nmol/L. The ED50 ([4]; patient sample IUhOS1516P (romidepsin resistant)) was >1,000 nmol/L, the ED50 ([4]; patient sample IUhOS1925B (romidepsin resistant)) was >1,000 nmol/L and the ED50 ([4]; patient sample IUhOS1925P (romidepsin resistant)) was >1,000 nmol/L. For the same compound, the ED50 ([4]; patient sample IUhOS2226B (romidepsin resistant)) was >1,000 nmol/L, the ED50 ([4]; patient sample IUhOS2226P (romidepsin resistant)) was >1,000 nmol/L and the “rank of ED50s among tested HDIs” value [5] was “lowest ED50s”. The “recovery of metabolic activity after a 24-hour exposure” value [6] was “sustained effect for 14 days” and the “recovery of metabolic activity after a 24-hour exposure” value [7] was “rapidly recovered”.
